Source: patent US10995225B2, “Macrocyclic polyphenols for universal coatings” (The Regents of the University of California, priority 2016, dated 2021)

Legend:
[1] = Sessile Contact Angle / wettability of coated PDMS; type: physicochemical
Method: Sessile Contact Angle: 2 μL drops were placed on planar samples prepared as in the previous section. Contact angles were measured using Ramé-Hart Droplmage analysis software and hardware setup.

[2] = Coating stability assay: coated substrates incubated overnight in PBS at 36° C.; type: physicochemical
Method: Coating Compositions and Stability Assays. A macrocyclic compound (1 mg/mL) was dissolved in DMSO. To this solution was added to 10 mM to 1.5 M salts in aqueous buffer (pH 4-10). Various substrates were coated by dipping the substrates in the coating mixture (e.g., see FIGS. 12-16) and the stability of the coating compositions were tested by incubating the coated substrates in PBS at 36° C. overnight (e.g., see FIG. 7-16). […] For example, 1 mg/mL of the arene were dissolved in DMSO (10 volume % of the total coating solution). To this solution the buffered aqueous solution containing the salt of choice and the buffer (90% of total coating solution) was added. Then the pH was adjusted using HCl or NaOH solutions. The solution was transferred to a glass vial and the different substrates where added. The vial was sealed and placed on a rocking platform for 24 h. The substrate was rinsed with DI H2O then dried with a N2 flow. Buffers used included Na2CO3 (pH 11), bicine (ph 8-9), bis-tris (pH 6-7), tris (pH 7), sodium acetate (pH 4-5). The Buffer concentration used were between 0.1 and 2.2 M. Salt concentration used were between 0 and 1.5 M.

| wettability of PDMS [1] | optimal pH for coating stability ([2]; 0.2M MgCl2 in Bicine buffer) | optimal salt concentration for coating stability ([2]; CaCl2 in Gly buffer) [M] | optimal salt concentration for coating stability ([2]; MgCl2, pH 8.5, Bicine buffer) [M] | optimal pH for coating stability ([2]; pH screen, MgCl2 salt) | SMILES |
| --- | --- | --- | --- | --- | --- |
| increase the wettability of PDMS | – | – | – | – | Oc1cccc(O)c1O [pyrogallol] |
| – | 8.5 | 0.5 | 0.5 | 8.0 | Oc1ccc(C2c3cc(c(O)cc3O)C(c3ccc(O)c(O)c3)c3cc(c(O)cc3O)C(c3ccc(O)c(O)c3)c3cc(c(O)cc3O)C(c3ccc(O)c(O)c3)c3cc2c(O)cc3O)cc1O [D-D macrocycle] |
